In experiment [1] the test system is PLN (phospholamban) Ser16. Kind of experiment: Immunoblot of phosphorylated PLN in WT-CST perfused hearts. The arrangement: species or system rat. To be noted: 110 nM. On the procedure:
Cardiac signaling—Hearts were perfused with or without 110 nM WT-Cts as before. At the end of experiment hearts were snap frozen under liquid nitrogen and homogenized with 1 ml of ice cold 0.2 M sucrose, Tris maleate (pH 7.0) buffer supplemented with 2 mM EDTA, pH 8.0, 1 mM sodium orthovanadate, 10 mM sodium pyrophosphate, 1 mM phenylmethylsulfonyl fluoride, 10 μg/ml leupeptin, 10 μg/ml aprotinin and 0.1 mM 3-isobutyl-1-methylxanthine. SR membrane fractions were isolated from cytosolic proteins as described before (27). Protein content was determined by Bradford assay (BIO-RAD) and 100 μg of cytosolic protein was subjected to SDS-PAGE immunoblot analysis for phosphorylated-ERK, total ERK (P-ERK and T-ERK; Santa Cruz, Calif.). […]
Statistics—Data are expressed as the mean±SEM. Curve fitting was accomplished in the program Kaleidagraph (Synergy Software, Reading, Pa.). […] For analysis of phosphorylated proteins, levels were quantified using Bio-Rad QuantifyOne and volumes of phosphorylated proteins were divided by the levels of non-phosphorylated proteins to calculate fold activation. Stimulation of protein activity was expressed as fold increase over vehicle-treated control. The means and S.E.M. were calculated for each treatment. […]
In general terms: Immunoblotting shows a protein as a band on a membrane.

Experiment [2] concerns sympathochromaffin cells. Conditions: in vitro, cited from earlier work.
Experiment [3] has as its system Wild-type and CgA-KO mice. Put plainly: Heart rate variability (EKG) in sedated mice. In kind it is in vivo. On the procedure: Animals. Six Wild-type and seven CgA-KO mice were used in this study (see example 1 for the details).
Mice were sedated by an intraperitoneal injection of a 1 μl solution per gm body weight, containing Ketamine (100 mg/ml)+Xylazine (20 mg/ml) and Acepromazine (10 mg/ml). Mice were gently strapped onto the surgical table in a fixed supine position with silk tape. Body temperature was continuously monitored on an analog thermometer, model 44TA (YSI, Ohio) using a rectal probe, and maintained between 36.5 and 38.5° C. throughout the experiment using a controlled heating box. The analog output signal fed into the chart recorder (AD Instruments, Colorado) and suitably amplified. The adequacy of sedation was regularly verified by absence of vibrissae twitching and withdrawal reflex to a noxious toe-pinch and was supplemented intraperitoneally as needed. Animals breathed ambient air spontaneously throughout the experimental run. Investigational agent, a nicotinic cholinergic receptor antagonist (8), CST was dissolved in distilled water and injected intraperitoneally at a volume of 70 μl from a 1 mM working solution.
EKG electrodes were attached to all four limbs (incl. reference electrode) via 30G stainless steel hypodermic needles (Popper & Sons, New York) so as to record standard bipolar Einthoven derivation (lead I, II and III) EKG signals. The EKG signals were bandpass-filtered between 0.1 and 3 kHz with a notch filter set at 60 Hz, and sampled at 2 kHz. The voltage output fed into a data acquisition system (PowerLab-8, AD Instruments) for eventual off-line measurements and analysis by chart and scope (Labchart 6) software. Heart rate and rhythm were also monitored continuously on an oscilloscope (Tektronix 5113, Oregon) throughout the experiment.
EKG traces were edited using the Chart® software package. High frequency noise from the EKG was removed using a 45 Hz low-pass filter to enable detection of the R-waves, whenever appropriate. A threshold electrical potential value was set for each trace and the post-threshold maximum was taken as the R-wave. Each trace was visually inspected for any undetected R-waves and these were manually inserted, while incorrectly detected R-waves or non-normal beats such as extrasystoles were deleted. Time and frequency domain analysis of HRV was performed using fast Fourier-transformation with a Hanning window. Spectral power was calculated on 50% overlapped blocks on sequences of 1024 points (beats). Time-domain parameters recorded or calculated included: mean R-R interval (in ms) [i.e., NN interval, i.e., normal-to-normal intervals]; standard deviation of all normal R-R interval (SDNN, in ms), reflecting total autonomic variability; square root mean of squared differences between adjacent normal R-R intervals (RMSSD), an index for short-term variations in inter-beat intervals, primarily of parasympathetic nature; and percentage of normal consecutive inter-beat intervals differing by >7 ms (NN7%), reflecting cardiac parasympathetic tone, were calculated directly from the sequence of interval times. NN7 is a murine-adjusted value based on PNN50 determined for humans (32). The mean HR was calculated as the mean sequence of reciprocals of the interval times. For non-linear measurements on the return map of R-R intervals (Lorenz plot), the images acquired by the chart software were imported into Image J (National Institutes of Health, Bethesda) for evaluating point dispersion of S1 and S2 (see below). The width and length of the dispersion of data in Lorenz plots reflects the level of short- and long-term beat-to-beat variability, respectively. The different frequency domain measures of HRV were computed using cut-off frequencies for power in the very low frequency (VLF), low-frequency range (LF) and high-frequency range (HF) based on human studies multiplied by a factor of ten for HR adjustment (the approximate ratio between murine and human HR) (33). […]

Experiment [4] concerns ECs. Kind of experiment: In-vitro angiogenic effects on ECs (migration, proliferation, matrigel assay). In kind it is cell-based.

Where two headings read alike, the source gives them in different places. No end group written: not given here.

For “SSMKLSFRARAYGFRGPGPQL [WT-CST, catestatin]”, the “Phosphorylation of PLN at Ser16” value in experiment [1] is listed as “inhibited”. The “Rank order of potency, inhibition of catecholamine secretion” value in experiment [2] (listed as wild-type (WT)) is “Pro370Leu>wild-type (WT)>Gly364Ser>Arg374Gln”. For the same sequence, the “Rank order of potency, inhibition of catecholamine secretion” value in experiment [2] (listed as wildtype (WT)) is listed as “Pro370Leu>wildtype (WT)>Gly364Ser>Arg374Gln”. The “Increased baseline heart rate” value in experiment [3] (CgA KO mice, parenteral CST) was “rescued”. Moreover, in experiment [3] (KO mice), the “HRV VLF power” value is 2.899±1.05 ln ms^2 and the “Time-domain parameters of HRV (SDNN, NN7%, RMSSD)” value is “reversed”. The “HRV VLF power” value in experiment [3] (WT mice) is reported as 2.468±0.69 ln ms^2. In addition, in experiment [3] (mouse, in vivo), the “Short-term and long-term variability of HRV (Lorenz analysis)” value was “marked improvements”; the Spectral peak positions result is “not visibly altered”. Moreover, in experiment [4], the “Concentration of maximal function” value came out at 1 nM; the “Direct effects on ECs” value was “exerts several direct effects on ECs including EC migration and proliferation”; the “MAPK signaling pathway in ECs” value is listed as “induced activation of MAPK signaling pathway”. Besides, the “Angiogenic effects at higher concentration” value in experiment [4] (100 nM, EC migration, proliferation, in-vitro matrigel assay) is “angiogenic effects were still observed”.

These data come from patent US20110166066A1, “CATESTATIN (CST) AND ITS VARIANTS FOR TREATMENT OF CARDIOVASCULAR AND METABOLIC DISORDERS” (priority 2008, published 2011).
